Reference: patent US20100074846A1, “Campylobacter Vaccines and Methods of use” (priority 2006, published 2010)

Test system: Campylobacter species pig isolates
Test: nalidixic acid and cephalothin antibiotic sensitivity and resistance testing of pig isolates
Type: cell-based, Campylobacter coli

Row | Structure (SMILES) | antibiotic sensitivity/resistance (pig isolate 1-Group B) | antibiotic sensitivity/resistance (pig isolate 2-Group B) | antibiotic sensitivity/resistance (pig isolate 3-Group A) | antibiotic sensitivity/resistance (pig isolate 3-Group B) | antibiotic sensitivity/resistance (pig isolate 4-Group A) | antibiotic sensitivity/resistance (pig isolate 6-Group A) | antibiotic sensitivity/resistance (pig isolate 7-Group A)
1 | CC(=O)OCC1=C(C(=O)O)N2C(=O)[C@@H](NC(=O)Cc3cccs3)[C@H]2SC1 [Cph, cephalothin] | S | R | R | R | S | R | R
2 | CCn1cc(C(=O)O)c(=O)c2ccc(C)nc21 [NA, nalidixic acid] | S | S | R | S | S | S | S
